These results are taken from patent US10508309B2, “Methods for detecting and treating variants of seborrheic keratoses” (THE GENERAL HOSPITAL CORPORATION, priority 2013, dated 2019).

This experiment has as its system SK. As to the kind of experiment: Response to A44/puro (summary of features for KA, SK, and SCC). The note with it: seborrheic keratosis (SK) column; the KA and SCC cells print "?".

For the compound `COc1ccc(C[C@H](N)C(=O)N[C@H]2[C@@H](O)[C@H](n3cnc4c(N(C)C)ncnc43)O[C@@H]2CO)cc1` [puro, puromycin], the “Response to A44/puro?” value was “Yes”.
